Laboratory results as given in patent US7955808B2, “Bitter taste receptors” (Deutsches Institut für Ernährungsorschung, Stiftung des …, priority 2002, dated 2011).

Columns and labels:
[1] = target: hTAS2R43 (Homo sapiens, UniProt P59537, H212R/W35S)
Text: (§1) These cells stably express a chimeric G protein constructed from human Gα16 and rat gustducin. Finally, we seeded the transfected cells at a density of 3×10^3 cells per well into 96-well black-wall, clear-bottom microtiter plates (Greiner).
(§2) Co-transfection of TAS2Rs with gustducin and phospholipase-Cβ2 into HEK-293 cells. Alternatively, we transfected simultaneously plasmid DNAs encoding one of the TAS2Rs, phospholipase-Cβ2 and α-gustducin into HEK-293 cells using the lipofectamine method. […] Thereafter, the transfected cells were seeded at a density of 3×10^3 cells per well into 96-well black-wall, clear-bottom microtiter plates (Greiner).
(§3) Thereafter, cells were gently washed in HBS by an automated plate washer (Denley Cellwash, Labsystenms) and transferred to the FLIPR (Molecular Devices). The FLIPR integrates an argon laser excitation source, a 96-well pipettor, and a detection system utilizing a Charged Coupled Device imaging camera. […] Fluorescence data were collected 1 min before and 10 min after stimulation. Data were collected every 6 s before and every 1 s after agonist stimulation. 50 μl of 3× concentrated agonists were delivered within 2 by the integrated 96-well pipettor to the wells containing 100 μl HBS. Agonist responses were quantified using the amplitudes of the fluorescence peaks. We averaged the responses of five wells containing cells expressing the same receptor and that received the same stimulus. Calcium traces were determined in triplicate of mock-transfected cells stimulated with the same concentration of tastant.

[2] = target: hTAS2R44 (Homo sapiens, UniProt P59538, L162M)
Chain of hTAS2R44 (P59538 whole entry L162M): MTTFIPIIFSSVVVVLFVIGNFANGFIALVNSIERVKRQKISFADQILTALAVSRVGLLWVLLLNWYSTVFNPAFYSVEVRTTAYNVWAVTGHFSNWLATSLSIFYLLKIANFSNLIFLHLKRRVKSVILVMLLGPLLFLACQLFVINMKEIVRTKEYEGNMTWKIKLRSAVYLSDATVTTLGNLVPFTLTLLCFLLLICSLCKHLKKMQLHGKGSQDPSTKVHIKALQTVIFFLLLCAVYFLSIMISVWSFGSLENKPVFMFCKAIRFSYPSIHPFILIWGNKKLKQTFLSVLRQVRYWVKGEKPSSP
Text: as §1, §2, §3

[3] = target: T1, hT2R4 receptor (Homo sapiens, UniProt Q9NYW5); details: concentrations needed two orders of magnitude above human taste thresholds; cited from earlier work
T1 sequence (Q9NYW5 1-299): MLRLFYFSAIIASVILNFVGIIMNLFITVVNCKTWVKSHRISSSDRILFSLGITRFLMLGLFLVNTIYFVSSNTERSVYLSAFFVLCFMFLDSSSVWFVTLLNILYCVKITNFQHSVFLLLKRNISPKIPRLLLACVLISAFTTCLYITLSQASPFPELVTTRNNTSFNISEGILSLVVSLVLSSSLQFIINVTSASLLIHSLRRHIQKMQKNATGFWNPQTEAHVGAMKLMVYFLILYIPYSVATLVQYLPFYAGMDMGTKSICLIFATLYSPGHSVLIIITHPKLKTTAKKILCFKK

[4] = target: T2, hTAS2R38 (Homo sapiens, UniProt P59533); assay: FLIPR assay, heterologous expression of hTAS2R38; type: cell-based
T2 construct: gene-specific primers that span the complete coding region ... contains the first 45 amino acids of the rat somatostatin type 3 receptor
T2 sequence (P59533 1-333 A49P/I296V): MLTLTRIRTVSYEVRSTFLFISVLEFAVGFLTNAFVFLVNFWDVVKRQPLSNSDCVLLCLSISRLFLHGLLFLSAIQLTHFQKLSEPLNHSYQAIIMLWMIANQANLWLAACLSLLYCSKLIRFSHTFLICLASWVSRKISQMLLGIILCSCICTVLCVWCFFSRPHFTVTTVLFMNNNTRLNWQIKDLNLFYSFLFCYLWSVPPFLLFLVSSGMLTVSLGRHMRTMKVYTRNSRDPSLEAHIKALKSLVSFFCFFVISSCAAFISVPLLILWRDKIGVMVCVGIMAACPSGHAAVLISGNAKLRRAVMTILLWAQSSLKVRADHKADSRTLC
Description: Co-transfection of TAS2Rs with gustducin and phospholipase-Cβ2 into HEK-293 cells. Alternatively, we transfected simultaneously plasmid DNAs encoding one of the TAS2Rs, phospholipase-Cβ2 and α-gustducin into HEK-293 cells using the lipofectamine method. Additional cotransfection of G-protein β and γ-subunits may improve the bitter tastant-induced responses. Thereafter, the transfected cells were seeded at a density of 3×10^3 cells per well into 96-well black-wall, clear-bottom microtiter plates (Greiner).

[5] = target: T3, hTAS2R48 (Homo sapiens, UniProt P59542); assay: FLIPR assay, heterologous expression of hTAS2R48; type: cell-based
T3 construct: gene-specific primers that span the complete coding region of the individual hTAS2R genes; first 45 amino acids of rat somatostatin type 3 receptor (cell surface-targeting signal) (N); expressed in transfected cells; host or cells: HEK-293T-Gα16gustducin44 cells (alternatively HEK-293 co-transfected with phospholipase-Cβ2 and α-gustducin)
T3 sequence (P59542 1-299): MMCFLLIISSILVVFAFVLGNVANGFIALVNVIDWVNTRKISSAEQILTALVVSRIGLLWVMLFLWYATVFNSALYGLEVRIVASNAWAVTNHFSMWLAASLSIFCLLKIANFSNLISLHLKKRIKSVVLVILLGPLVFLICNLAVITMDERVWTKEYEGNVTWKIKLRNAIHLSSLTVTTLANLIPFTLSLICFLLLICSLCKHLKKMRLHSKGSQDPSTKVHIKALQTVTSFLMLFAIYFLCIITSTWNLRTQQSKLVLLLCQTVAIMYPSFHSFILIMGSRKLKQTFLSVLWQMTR
Text: (§4) Transient transfection of TAS2Rs into HEK-293T-Gα16gustducin44 cells.

[6] = target: T4, hTAS2R10 (Homo sapiens, UniProt Q9NYW0, T156M); assay: FLIPR assay, heterologous expression of hTAS2R10; type: cell-based; details: hTAS2R10
T4 construct: gene-specific primers that span the complete coding region of the individual hTAS2R genes; first 45 amino acids of rat somatostatin type 3 receptor (cell surface-targeting signal) (N); expressed in transfected cells; host or cells: HEK-293T-Gα16gustducin44 cells (alternatively HEK-293 co-transfected with phospholipase-Cβ2 and α-gustducin)
T4 sequence (Q9NYW0 1-307 T156M): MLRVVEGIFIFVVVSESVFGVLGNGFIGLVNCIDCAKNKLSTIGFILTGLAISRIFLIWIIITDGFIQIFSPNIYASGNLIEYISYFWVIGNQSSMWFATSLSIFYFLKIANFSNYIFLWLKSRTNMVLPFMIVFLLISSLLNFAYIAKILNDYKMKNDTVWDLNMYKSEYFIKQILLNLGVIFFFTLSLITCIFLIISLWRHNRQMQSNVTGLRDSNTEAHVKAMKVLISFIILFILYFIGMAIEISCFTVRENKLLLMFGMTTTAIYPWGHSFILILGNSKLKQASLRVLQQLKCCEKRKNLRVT
Text: as §4

[7] = target: T5, hTAS2R45 (Homo sapiens, UniProt P59539); assay: FLIPR assay, heterologous expression of hTAS2R45; type: cell-based
T5 construct: gene-specific primers that span the complete coding region of the individual hTAS2R genes; first 45 amino acids of rat somatostatin type 3 receptor (cell surface-targeting signal) (N); expressed in transfected cells; host or cells: HEK-293T-Gα16gustducin44 cells (alternatively HEK-293 co-transfected with phospholipase-Cβ2 and α-gustducin)
T5 sequence (P59539 1-299): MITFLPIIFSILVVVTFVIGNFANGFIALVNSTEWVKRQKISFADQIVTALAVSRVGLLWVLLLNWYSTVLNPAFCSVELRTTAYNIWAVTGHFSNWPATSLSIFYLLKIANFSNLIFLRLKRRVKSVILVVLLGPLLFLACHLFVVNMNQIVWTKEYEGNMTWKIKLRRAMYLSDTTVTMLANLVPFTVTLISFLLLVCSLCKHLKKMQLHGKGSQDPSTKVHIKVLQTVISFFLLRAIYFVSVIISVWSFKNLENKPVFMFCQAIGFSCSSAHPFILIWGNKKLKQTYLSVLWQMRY
Text: as §4

[8] = target: T6, hTAS2R46 (Homo sapiens, UniProt P59540); assay: FLIPR assay, heterologous expression of hTAS2R46; type: cell-based
T6 construct: gene-specific primers that span the complete coding region of the individual hTAS2R genes; first 45 amino acids of rat somatostatin type 3 receptor (cell surface-targeting signal) (N); expressed in transfected cells; host or cells: HEK-293T-Gα16gustducin44 cells (alternatively HEK-293 co-transfected with phospholipase-Cβ2 and α-gustducin)
T6 sequence (P59540 with tags, fused parts or gaps limits assumed): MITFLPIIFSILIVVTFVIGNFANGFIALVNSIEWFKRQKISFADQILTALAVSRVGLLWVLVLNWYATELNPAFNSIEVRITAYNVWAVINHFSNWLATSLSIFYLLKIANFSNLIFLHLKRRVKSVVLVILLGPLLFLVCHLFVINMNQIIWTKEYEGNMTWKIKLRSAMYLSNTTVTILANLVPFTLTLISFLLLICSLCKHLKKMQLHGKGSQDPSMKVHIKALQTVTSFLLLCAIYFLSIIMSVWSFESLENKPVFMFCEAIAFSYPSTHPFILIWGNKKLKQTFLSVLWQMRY
Text: as §4

Chain of hTAS2R43 (P59537 whole entry W35S/H212R): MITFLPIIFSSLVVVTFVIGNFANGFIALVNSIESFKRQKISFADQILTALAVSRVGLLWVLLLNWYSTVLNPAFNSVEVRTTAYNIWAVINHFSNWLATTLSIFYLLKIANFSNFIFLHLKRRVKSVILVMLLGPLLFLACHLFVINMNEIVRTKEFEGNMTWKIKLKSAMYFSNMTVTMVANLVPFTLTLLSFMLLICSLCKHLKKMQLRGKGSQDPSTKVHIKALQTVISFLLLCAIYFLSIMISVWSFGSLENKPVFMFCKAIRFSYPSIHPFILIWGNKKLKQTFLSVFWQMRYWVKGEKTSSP

SMILES: CC1=CC(=O)NS(=O)(=O)O1 [Acesulfame K]
- Approx. Threshold [1]: No response up to 10 mM
- Approx. Threshold [2]: 0.5 mM
- receptor activation (in words) [2]: activated

SMILES: CCCc1cc(=O)[nH]c(=S)[nH]1 [6-Propyl-2-thiouracil]
- in vitro response of the receptor [3]: provided a response
- Approx. Threshold [4]: 0.3 µM
- receptor activation (in words) [4]: activated
- EC50 ([4]; read-out: EC50): 2000 nM

SMILES: CC1=C[C@@H]2[C@@H]3C4C(=C(C)[C@@H]3[C@@]13[C@@H]2[C@@](C)(O)CC[C@H]1[C@H](C)C(=O)O[C@@H]13)[C@H]1OC(=O)[C@@H](C)[C@@H]1CC[C@]4(C)O (stereo partly drawn) [Absinthine]
- Approx. Threshold [5]: 0.03 mM
- receptor activation (in words) [5]: activated
- Approx. Threshold [6]: 0.01 mM
- receptor activation (in words) [6]: activated
- Approx. Threshold [7]: 0.003 mM
- receptor activation (in words) [7]: activated
- Approx. Threshold [8]: 0.001 mM
- receptor activation (in words) [8]: activated
